Tests used:
[1] = system: Tyrosine-protein kinase ABL1 (Homo sapiens), P00519 [Q252H]; conditions: Compound concentration 1000.0 nM
[2] = biological target: Tyrosine-protein kinase ABL2 (Homo sapiens) (UniProt P42684); conditions: Compound concentration 1000.0 nM
[3] = biological target: Activin receptor type-1-like (Homo sapiens) (UniProt P37023); conditions: Compound concentration 1000.0 nM
[4] = biological target: RAC-alpha serine/threonine-protein kinase (Homo sapiens) (UniProt P31749); conditions: Compound concentration 1000.0 nM
[5] = biological target: 5'-AMP-activated protein kinase catalytic subunit alpha-1 (Homo sapiens) (UniProt Q13131); conditions: Compound concentration 1000.0 nM
[6] = biological target: Aurora kinase C (Homo sapiens) (UniProt Q9UQB9); conditions: Compound concentration 1000.0 nM
Aurora kinase C (Homo sapiens), sequence (Q9UQB9 whole entry): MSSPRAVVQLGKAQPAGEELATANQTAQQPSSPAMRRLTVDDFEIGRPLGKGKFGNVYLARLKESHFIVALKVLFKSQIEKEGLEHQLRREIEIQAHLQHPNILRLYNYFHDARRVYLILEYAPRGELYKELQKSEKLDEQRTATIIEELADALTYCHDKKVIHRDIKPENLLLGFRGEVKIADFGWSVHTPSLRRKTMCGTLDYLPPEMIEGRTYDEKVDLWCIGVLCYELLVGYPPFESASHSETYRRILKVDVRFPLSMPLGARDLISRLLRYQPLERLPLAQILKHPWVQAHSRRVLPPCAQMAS

[7] = biological target: Calcium/calmodulin-dependent protein kinase type II subunit beta (Homo sapiens) (UniProt Q13554); conditions: Compound concentration 1000.0 nM
[8] = biological target: Peripheral plasma membrane protein CASK (Homo sapiens) (UniProt O14936); conditions: Compound concentration 1000.0 nM
[9] = biological target: Cyclin-dependent kinase 4 (Homo sapiens) (UniProt P11802); conditions: Compound concentration 1000.0 nM
[10] = biological target: Cyclin-dependent kinase 5 (Homo sapiens) (UniProt Q00535); conditions: Compound concentration 1000.0 nM
[11] = biological target: Cyclin-dependent kinase-like 3 (Homo sapiens) (UniProt Q8IVW4); conditions: Compound concentration 1000.0 nM
[12] = biological target: Dual specificity protein kinase CLK4 (Homo sapiens) (UniProt Q9HAZ1); conditions: Compound concentration 1000.0 nM
[13] = biological target: Mitogen-activated protein kinase kinase kinase 12 (Homo sapiens) (UniProt Q12852); conditions: Compound concentration 1000.0 nM
[14] = system: Epidermal growth factor receptor (Homo sapiens), P00533 [G719C]; conditions: Compound concentration 1000.0 nM
[15] = system: Epidermal growth factor receptor (Homo sapiens), P00533 [L858R]; conditions: Compound concentration 1000.0 nM
[16] = biological target: Receptor tyrosine-protein kinase erbB-4 (Homo sapiens) (UniProt Q15303); conditions: Compound concentration 1000.0 nM
Receptor tyrosine-protein kinase erbB-4 (Homo sapiens), sequence (Q15303 whole entry): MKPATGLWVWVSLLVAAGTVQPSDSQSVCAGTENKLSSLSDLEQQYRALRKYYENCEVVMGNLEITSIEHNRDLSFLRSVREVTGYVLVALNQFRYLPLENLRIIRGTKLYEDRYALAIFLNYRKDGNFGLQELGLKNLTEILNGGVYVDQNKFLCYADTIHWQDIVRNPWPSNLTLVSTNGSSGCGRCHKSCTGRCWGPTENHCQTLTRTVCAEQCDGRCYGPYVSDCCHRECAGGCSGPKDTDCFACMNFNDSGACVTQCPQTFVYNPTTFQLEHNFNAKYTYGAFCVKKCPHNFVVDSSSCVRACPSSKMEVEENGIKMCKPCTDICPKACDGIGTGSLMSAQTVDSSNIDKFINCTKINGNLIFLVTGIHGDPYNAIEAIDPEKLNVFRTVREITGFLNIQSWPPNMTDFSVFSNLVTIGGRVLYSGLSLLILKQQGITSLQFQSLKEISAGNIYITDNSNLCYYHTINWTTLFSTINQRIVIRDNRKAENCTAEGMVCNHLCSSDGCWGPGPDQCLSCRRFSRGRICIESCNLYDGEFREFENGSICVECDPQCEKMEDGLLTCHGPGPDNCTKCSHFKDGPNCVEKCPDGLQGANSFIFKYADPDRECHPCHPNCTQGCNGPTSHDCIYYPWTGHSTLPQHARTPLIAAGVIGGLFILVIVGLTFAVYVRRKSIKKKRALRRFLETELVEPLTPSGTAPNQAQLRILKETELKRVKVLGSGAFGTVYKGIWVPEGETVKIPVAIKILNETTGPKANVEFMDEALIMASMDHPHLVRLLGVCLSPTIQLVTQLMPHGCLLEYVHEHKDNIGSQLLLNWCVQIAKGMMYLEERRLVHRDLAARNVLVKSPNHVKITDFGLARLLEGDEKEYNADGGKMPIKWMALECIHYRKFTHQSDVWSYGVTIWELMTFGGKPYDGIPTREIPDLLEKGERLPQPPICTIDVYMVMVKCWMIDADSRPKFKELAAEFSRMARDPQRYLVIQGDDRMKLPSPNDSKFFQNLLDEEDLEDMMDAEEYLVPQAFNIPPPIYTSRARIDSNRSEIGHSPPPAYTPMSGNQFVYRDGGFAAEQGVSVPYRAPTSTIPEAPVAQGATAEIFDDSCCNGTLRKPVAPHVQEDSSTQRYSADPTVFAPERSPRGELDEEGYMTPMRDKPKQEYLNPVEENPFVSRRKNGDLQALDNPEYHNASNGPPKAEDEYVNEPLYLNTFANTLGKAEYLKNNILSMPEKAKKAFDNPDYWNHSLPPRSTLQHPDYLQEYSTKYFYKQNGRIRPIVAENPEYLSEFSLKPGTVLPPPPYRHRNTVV

[17] = biological target: Mitogen-activated protein kinase 1 (Homo sapiens) (UniProt P28482); conditions: Compound concentration 1000.0 nM
[18] = biological target: Focal adhesion kinase 1 (Homo sapiens) (UniProt Q05397); conditions: Compound concentration 1000.0 nM
[19] = system: Receptor-type tyrosine-protein kinase FLT3 (Homo sapiens), P36888 [UNDEFINED MUTATION]; conditions: Compound concentration 1000.0 nM
[20] = biological target: Hormonally up-regulated neu tumor-associated kinase (Homo sapiens) (UniProt P57058); conditions: Compound concentration 1000.0 nM
[21] = biological target: Tyrosine-protein kinase ITK/TSK (Homo sapiens) (UniProt Q08881); conditions: Compound concentration 1000.0 nM
[22] = biological target: Mast/stem cell growth factor receptor Kit (Homo sapiens) (UniProt P10721); conditions: Compound concentration 1000.0 nM
Mast/stem cell growth factor receptor Kit (Homo sapiens), sequence (P10721 whole entry): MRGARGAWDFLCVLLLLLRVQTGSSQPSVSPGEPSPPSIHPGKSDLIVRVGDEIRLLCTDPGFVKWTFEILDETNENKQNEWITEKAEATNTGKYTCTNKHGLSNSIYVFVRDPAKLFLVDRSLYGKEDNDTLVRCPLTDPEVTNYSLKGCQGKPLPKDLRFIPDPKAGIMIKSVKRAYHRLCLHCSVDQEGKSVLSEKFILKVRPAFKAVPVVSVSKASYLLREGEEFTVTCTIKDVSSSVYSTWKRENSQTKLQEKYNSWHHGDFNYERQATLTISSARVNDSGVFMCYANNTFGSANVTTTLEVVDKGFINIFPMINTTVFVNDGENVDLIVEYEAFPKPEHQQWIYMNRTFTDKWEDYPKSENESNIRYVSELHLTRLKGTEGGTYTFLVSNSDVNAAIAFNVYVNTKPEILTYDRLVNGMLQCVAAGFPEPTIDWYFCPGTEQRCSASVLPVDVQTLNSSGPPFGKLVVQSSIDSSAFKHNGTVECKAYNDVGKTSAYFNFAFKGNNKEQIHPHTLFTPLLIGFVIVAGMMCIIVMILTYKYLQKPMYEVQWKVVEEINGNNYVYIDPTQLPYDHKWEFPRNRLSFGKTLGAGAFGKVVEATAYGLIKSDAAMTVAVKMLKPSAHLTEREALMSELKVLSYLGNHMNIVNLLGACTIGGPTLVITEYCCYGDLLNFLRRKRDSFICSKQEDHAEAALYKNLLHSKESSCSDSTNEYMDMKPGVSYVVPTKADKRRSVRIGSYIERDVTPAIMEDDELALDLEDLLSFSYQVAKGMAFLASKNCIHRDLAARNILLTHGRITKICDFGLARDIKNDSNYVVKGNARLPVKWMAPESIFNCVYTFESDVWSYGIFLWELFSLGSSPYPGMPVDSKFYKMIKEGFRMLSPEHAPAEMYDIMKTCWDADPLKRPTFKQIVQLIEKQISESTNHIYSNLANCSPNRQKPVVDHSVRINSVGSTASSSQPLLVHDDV

[23] = system: Mast/stem cell growth factor receptor Kit (Homo sapiens), P10721 [A829P]; conditions: Compound concentration 1000.0 nM
Mast/stem cell growth factor receptor Kit (Homo sapiens), P10721 [A829P], sequence (P10721 whole entry A829P): as the sequence (P10721 whole entry) above, with A829P counted along it

[24] = system: Mast/stem cell growth factor receptor Kit (Homo sapiens), P10721 [L576P]; conditions: Compound concentration 1000.0 nM
Mast/stem cell growth factor receptor Kit (Homo sapiens), P10721 [L576P], sequence (P10721 whole entry L576P): as the sequence (P10721 whole entry) above, with L576P counted along it

[25] = biological target: Serine/threonine-protein kinase STK11 (Homo sapiens) (UniProt Q15831); conditions: Compound concentration 1000.0 nM
[26] = biological target: MAP kinase-activated protein kinase 2 (Homo sapiens) (UniProt P49137); conditions: Compound concentration 1000.0 nM
[27] = biological target: Dual specificity mitogen-activated protein kinase kinase 5 (Homo sapiens) (UniProt Q13163); conditions: Compound concentration 1000.0 nM
[28] = biological target: Macrophage-stimulating protein receptor (Homo sapiens) (UniProt Q04912); conditions: Compound concentration 1000.0 nM
[29] = biological target: Serine/threonine-protein kinase Nek10 (Homo sapiens) (UniProt Q6ZWH5); conditions: Compound concentration 1000.0 nM
Serine/threonine-protein kinase Nek10 (Homo sapiens), sequence (Q6ZWH5 whole entry): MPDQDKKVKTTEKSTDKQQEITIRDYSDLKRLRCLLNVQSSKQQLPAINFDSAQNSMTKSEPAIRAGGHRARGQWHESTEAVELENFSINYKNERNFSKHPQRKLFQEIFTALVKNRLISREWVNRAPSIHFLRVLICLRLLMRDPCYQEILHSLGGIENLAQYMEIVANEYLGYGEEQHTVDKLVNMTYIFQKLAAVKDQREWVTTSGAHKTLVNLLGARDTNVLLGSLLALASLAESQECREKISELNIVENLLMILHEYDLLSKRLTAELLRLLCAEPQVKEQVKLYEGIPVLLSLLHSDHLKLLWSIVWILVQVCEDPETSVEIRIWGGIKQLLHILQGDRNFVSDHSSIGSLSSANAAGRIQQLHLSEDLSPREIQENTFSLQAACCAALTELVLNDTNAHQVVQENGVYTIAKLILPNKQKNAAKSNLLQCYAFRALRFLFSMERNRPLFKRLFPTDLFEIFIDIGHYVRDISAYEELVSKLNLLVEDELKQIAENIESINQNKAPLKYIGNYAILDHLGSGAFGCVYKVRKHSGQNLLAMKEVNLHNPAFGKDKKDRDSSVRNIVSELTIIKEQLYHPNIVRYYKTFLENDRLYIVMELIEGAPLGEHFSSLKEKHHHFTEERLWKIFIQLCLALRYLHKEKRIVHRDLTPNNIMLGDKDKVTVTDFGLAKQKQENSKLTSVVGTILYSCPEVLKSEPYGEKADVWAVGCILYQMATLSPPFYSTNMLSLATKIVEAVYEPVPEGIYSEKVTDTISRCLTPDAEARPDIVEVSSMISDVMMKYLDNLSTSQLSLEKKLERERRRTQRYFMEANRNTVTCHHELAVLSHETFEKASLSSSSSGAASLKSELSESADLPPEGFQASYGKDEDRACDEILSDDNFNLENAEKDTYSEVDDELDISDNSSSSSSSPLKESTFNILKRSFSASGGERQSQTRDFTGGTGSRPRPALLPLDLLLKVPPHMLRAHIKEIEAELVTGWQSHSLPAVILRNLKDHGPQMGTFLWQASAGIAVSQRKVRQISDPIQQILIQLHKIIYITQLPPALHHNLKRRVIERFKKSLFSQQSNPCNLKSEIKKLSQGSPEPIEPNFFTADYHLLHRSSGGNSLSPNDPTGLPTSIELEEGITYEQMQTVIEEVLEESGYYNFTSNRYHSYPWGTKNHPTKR

[30] = biological target: Platelet-derived growth factor receptor beta (Homo sapiens) (UniProt P09619); conditions: Compound concentration 1000.0 nM
[31] = biological target: Phosphorylase b kinase gamma catalytic chain, skeletal muscle/heart isoform (Homo sapiens) (UniProt Q16816); conditions: Compound concentration 1000.0 nM
[32] = biological target: Phosphatidylinositol 4,5-bisphosphate 3-kinase catalytic subunit beta isoform (Homo sapiens) (UniProt P42338); conditions: Compound concentration 1000.0 nM
[33] = biological target: Phosphatidylinositol 4,5-bisphosphate 3-kinase catalytic subunit gamma isoform (Homo sapiens) (UniProt P48736); conditions: Compound concentration 1000.0 nM
Phosphatidylinositol 4,5-bisphosphate 3-kinase catalytic subunit gamma isoform (Homo sapiens), sequence (P48736 whole entry, looked up, canonical isoform): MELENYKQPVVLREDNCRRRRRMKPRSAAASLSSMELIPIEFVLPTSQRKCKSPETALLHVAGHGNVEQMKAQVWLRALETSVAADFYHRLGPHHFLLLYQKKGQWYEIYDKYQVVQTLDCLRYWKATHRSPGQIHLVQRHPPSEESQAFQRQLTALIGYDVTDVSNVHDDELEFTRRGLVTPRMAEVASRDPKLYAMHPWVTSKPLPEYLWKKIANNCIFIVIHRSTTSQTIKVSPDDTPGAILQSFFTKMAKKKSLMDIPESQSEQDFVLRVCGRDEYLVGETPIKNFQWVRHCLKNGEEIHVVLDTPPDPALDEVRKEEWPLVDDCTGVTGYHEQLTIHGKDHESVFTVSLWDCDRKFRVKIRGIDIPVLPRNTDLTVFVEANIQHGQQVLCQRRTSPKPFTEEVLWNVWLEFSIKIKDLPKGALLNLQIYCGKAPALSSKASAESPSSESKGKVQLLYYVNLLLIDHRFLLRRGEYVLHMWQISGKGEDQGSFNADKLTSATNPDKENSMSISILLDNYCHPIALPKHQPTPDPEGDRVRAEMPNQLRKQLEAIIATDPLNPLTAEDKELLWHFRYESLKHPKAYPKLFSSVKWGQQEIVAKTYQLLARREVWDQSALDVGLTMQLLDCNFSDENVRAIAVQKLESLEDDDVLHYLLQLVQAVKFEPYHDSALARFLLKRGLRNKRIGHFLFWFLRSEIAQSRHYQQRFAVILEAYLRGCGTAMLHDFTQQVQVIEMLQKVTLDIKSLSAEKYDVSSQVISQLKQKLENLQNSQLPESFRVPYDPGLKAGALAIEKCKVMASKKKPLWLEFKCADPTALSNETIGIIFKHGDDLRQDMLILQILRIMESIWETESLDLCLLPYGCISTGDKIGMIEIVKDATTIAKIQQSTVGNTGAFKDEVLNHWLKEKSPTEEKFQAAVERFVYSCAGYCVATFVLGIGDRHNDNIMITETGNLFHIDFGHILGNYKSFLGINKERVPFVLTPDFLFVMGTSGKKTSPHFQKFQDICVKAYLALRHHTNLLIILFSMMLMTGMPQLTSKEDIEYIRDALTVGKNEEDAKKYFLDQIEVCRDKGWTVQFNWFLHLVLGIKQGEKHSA

[34] = biological target: Protein kinase C epsilon type (Homo sapiens) (UniProt Q02156); conditions: Compound concentration 1000.0 nM
[35] = biological target: STE20-like serine/threonine-protein kinase (Homo sapiens) (UniProt Q9H2G2); conditions: Compound concentration 1000.0 nM
[36] = biological target: Serine/threonine-protein kinase TAO1 (Homo sapiens) (UniProt Q7L7X3); conditions: Compound concentration 1000.0 nM
[37] = biological target: Serine/threonine-protein kinase TNNI3K (Homo sapiens) (UniProt Q59H18); conditions: Compound concentration 1000.0 nM
[38] = biological target: Tyrosine-protein kinase TXK (Homo sapiens) (UniProt P42681); conditions: Compound concentration 1000.0 nM
[39] = biological target: Non-receptor tyrosine-protein kinase TYK2 (Homo sapiens) (UniProt P29597); conditions: Compound concentration 1000.0 nM
[40] = biological target: Tyrosine-protein kinase receptor TYRO3 (Homo sapiens) (UniProt Q06418); conditions: Compound concentration 1000.0 nM
[41] = biological target: Phosphatidylinositol 3-kinase catalytic subunit type 3 (Homo sapiens) (UniProt Q8NEB9); conditions: Compound concentration 1000.0 nM
[42] = biological target: Serine/threonine-protein kinase WNK3 (Homo sapiens) (UniProt Q9BYP7); conditions: Compound concentration 1000.0 nM
[43] = biological target: Mu-type opioid receptor (Homo sapiens) (UniProt P35372); conditions: Compound concentration 10.0 uM
[44] = biological target: Histamine H2 receptor (Homo sapiens) (UniProt P25021); conditions: Compound concentration 10.0 uM
[45] = biological target: Histamine H3 receptor (Homo sapiens) (UniProt Q9Y5N1); conditions: Compound concentration 10.0 uM

C[C@H](c1ccc(F)cc1)N(Cc1cccc(C(=O)O)c1)C(=O)c1cnc2ccccc2c1 [PF-05105679]
inactive: residual activity [1] 89% | residual activity [2] 82% | residual activity [3] 100% | residual activity [4] 100% | residual activity [5] 100% | residual activity [6] 100% | residual activity [7] 100% | residual activity [8] 86% | residual activity [9] 100% | residual activity [10] 100% | residual activity [11] 64% | residual activity [12] 66% | residual activity [13] 100% | residual activity [14] 90% | residual activity [15] 100% | residual activity [16] 94% | residual activity [17] 99% | residual activity [18] 93% | residual activity [19] 100% | residual activity [20] 100% | residual activity [21] 84% | residual activity [22] 100% | residual activity [23] 92% | residual activity [24] 94% | residual activity [25] 100% | residual activity [26] 85% | residual activity [27] 92% | residual activity [28] 100% | residual activity [29] 96% | residual activity [30] 100% | residual activity [31] 88% | residual activity [32] 100% | residual activity [33] 100% | residual activity [34] 95% | residual activity [35] 100% | residual activity [36] 100% | residual activity [37] 97% | residual activity [38] 100% | residual activity [39] 92% | residual activity [40] 100% | residual activity [41] 100% | residual activity [42] 87% | inhibition [43] 1.23% | inhibition [44] -1.14% | inhibition [45] 16.6%

Source: ChEMBL document CHEMBL4507296 (2021)
